From US20210045385A1, “PYRIDAZINONE-SUBSTITUTED KETOXIMES AS HERBICIDES” (FMC Corporation, priority 2018, published 2021)

Columns and labels:
Format in all cases: in vivo
[1] = tested on: Italian ryegrass (Lolium mutiflorum); assay: Test C preemergence, visual plant response rating; details: Test C, 0 is no effect, 100 is complete control
Procedure, shortened: (§1)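 Visual injury on a 0 (no effect) to 100 (complete control) scale versus untreated controls, scored approximately 10 d after treatment under greenhouse conditions. Treatments used surfactant-containing non-phytotoxic solvent formulations, sprayed onto loam–sand soil preemergence or onto one- to two-leaf plants 2–10 cm tall postemergence.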

[2] = tested on: barnyardgrass (Echinochloa crus-galli); assay: Test C preemergence, visual plant response rating; details: Test C, 0 is no effect, 100 is complete control
Procedure, shortened: as §1

[3] = tested on: foxtail, giant (giant foxtail, Setaria faberi); assay: Test C preemergence, visual plant response rating; details: Test C, 0 is no effect, 100 is complete control
Procedure, shortened: as §1

[4] = tested on: kochia (Bassia scoparia); assay: Test C preemergence, visual plant response rating; details: Test C, 0 is no effect, 100 is complete control
Procedure, shortened: as §1

[5] = tested on: pigweed (Amaranthus retroflexus); assay: Test C preemergence, visual plant response rating; details: Test C, 0 is no effect, 100 is complete control
Procedure, shortened: as §1

[6] = tested on: ragweed (common ragweed, Ambrosia artemisiifolia); assay: Test C preemergence, visual plant response rating; details: Test C, 0 is no effect, 100 is complete control
Procedure, shortened: as §1

[7] = tested on: Italian ryegrass (Lolium mutiflorum); assay: Test C postemergence, visual plant response rating
Procedure, shortened: as §1

[8] = tested on: barnyardgrass (Echinochloa crus-galli); assay: Test C postemergence, visual plant response rating
Procedure, shortened: as §1

[9] = tested on: blackgrass (Alopecurus myosuroides); assay: Test C postemergence, visual plant response rating
Procedure, shortened: as §1

[10] = tested on: corn (Zea mays); assay: Test C postemergence, visual plant response rating
Procedure, shortened: as §1

[11] = tested on: foxtail, giant (giant foxtail, Setaria faberi); assay: Test C postemergence, visual plant response rating
Procedure, shortened: as §1

[12] = tested on: galium (catchweed bedstraw, Galium aparine); assay: Test C postemergence, visual plant response rating
Procedure, shortened: as §1

[13] = tested on: kochia (Bassia scoparia); assay: Test C postemergence, visual plant response rating
Procedure, shortened: as §1

[14] = tested on: pigweed (Amaranthus retroflexus); assay: Test C postemergence, visual plant response rating
Procedure, shortened: as §1

[15] = tested on: ragweed (common ragweed, Ambrosia artemisiifolia); assay: Test C postemergence, visual plant response rating
Procedure, shortened: as §1

[16] = tested on: wheat (Triticum aestivum); assay: Test C postemergence, visual plant response rating
Procedure, shortened: as §1

[17] = tested on: barnyardgrass (Echinochloa crus-galli); assay: Test D flooded paddy test, visual plant response rating; details: 250 g ai/ha, scale 0 to 100 (0 no effect, 100 complete control), 13 to 15 d
Procedure, shortened: (§2)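 Rating is visual, on a 0 (no effect) to 100 (complete control) scale versus controls, taken 13 to 15 d after treatment in a greenhouse. Treatment went into paddy water kept 3 cm above the soil surface, with plants at the 2-leaf stage.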

[18] = tested on: duck salad (Heteranthera limosa); assay: as above; details: 250 g ai/ha, scale 0 to 100 (0 no effect, 100 complete control), 13 to 15 d
Procedure, shortened: as §2

[19] = tested on: rice (Oryza sativa); assay: as above; details: 250 g ai/ha, scale 0 to 100 (0 no effect, 100 complete control), 13 to 15 d
Procedure, shortened: as §2

[20] = tested on: sedge umbrella (small-flower umbrella sedge, Cyperus difformis); assay: as above; details: 250 g ai/ha, scale 0 to 100 (0 no effect, 100 complete control), 13 to 15 d
Procedure, shortened: as §2

[21] = Test C, postemergence, 125 g ai/ha

CC(C)O/N=C(\c1c(O)c(Cl)nn(C)c1=O)c1ccc(F)c2ccccc12 [Compound 210]
Ryegrass, Italian plant response rating (0 to 100 scale) ([1]; 31 g ai/ha): 0 | Ryegrass, Italian plant response rating (0 to 100 scale) ([1]; 125 g ai/ha): 20 | Barnyardgrass plant response rating (0 to 100 scale) ([2]; 31 g ai/ha): 30 | Barnyardgrass plant response rating (0 to 100 scale) ([2]; 125 g ai/ha): 80 | Foxtail, Giant plant response rating (0 to 100 scale) ([3]; 31 g ai/ha): 90 | Foxtail, Giant plant response rating (0 to 100 scale) ([3]; 125 g ai/ha): 100 | Kochia plant response rating (0 to 100 scale) ([4]; 31 g ai/ha): 0 | Kochia plant response rating (0 to 100 scale) ([4]; 125 g ai/ha): 0 | Pigweed plant response rating (0 to 100 scale) ([5]; 31 g ai/ha): 30 | Pigweed plant response rating (0 to 100 scale) ([5]; 125 g ai/ha): 100 | Ragweed plant response rating (0 to 100 scale) ([6]; 31 g ai/ha): 0 | Ragweed plant response rating (0 to 100 scale) ([6]; 125 g ai/ha): 90 | Ryegrass, Italian plant response rating (0 to 100 scale) ([7]; Postemergence, 31 g ai/ha): 0 | Ryegrass, Italian plant response rating (0 to 100 scale) [7, 21]: 20 | Barnyardgrass plant response rating (0 to 100 scale) ([8]; Postemergence, 31 g ai/ha): 40 | Barnyardgrass plant response rating (0 to 100 scale) [8, 21]: 70 | Blackgrass plant response rating (0 to 100 scale) ([9]; Postemergence, 31 g ai/ha): 0 | Blackgrass plant response rating (0 to 100 scale) [9, 21]: 30 | Corn plant response rating (0 to 100 scale) ([10]; Postemergence, 31 g ai/ha): 20 | Corn plant response rating (0 to 100 scale) [10, 21]: 20 | Foxtail, Giant plant response rating (0 to 100 scale) ([11]; Postemergence, 31 g ai/ha): 70 | Foxtail, Giant plant response rating (0 to 100 scale) [11, 21]: 90 | Galium plant response rating (0 to 100 scale) ([12]; Postemergence, 31 g ai/ha): 90 | Galium plant response rating (0 to 100 scale) [12, 21]: 100 | Kochia plant response rating (0 to 100 scale) ([13]; Postemergence, 31 g ai/ha): 30 | Kochia plant response rating (0 to 100 scale) [13, 21]: 40 | Pigweed plant response rating (0 to 100 scale) ([14]; Postemergence, 31 g ai/ha): 40 | Pigweed plant response rating (0 to 100 scale) [14, 21]: 100 | Ragweed plant response rating (0 to 100 scale) ([15]; Postemergence, 31 g ai/ha): 90 | Ragweed plant response rating (0 to 100 scale) [15, 21]: 90 | Wheat plant response rating (0 to 100 scale) ([16]; Postemergence, 31 g ai/ha): 0 | Wheat plant response rating (0 to 100 scale) [16, 21]: 0 | Plant response rating, Barnyardgrass (Flood) [17]: 0 | Plant response rating, Ducksalad (Flood) [18]: 45 | Plant response rating, Rice (Flood) [19]: 0 | Plant response rating, Sedge, Umbrella (Flood) [20]: 90

CCO/N=C(/c1c(O)c(Cl)nn(C)c1=O)c1ccc(F)c2ccccc12 [Compound 211]
Ryegrass, Italian plant response rating (0 to 100 scale) ([1]; 31 g ai/ha): 30 | Ryegrass, Italian plant response rating (0 to 100 scale) ([1]; 125 g ai/ha): 80 | Barnyardgrass plant response rating (0 to 100 scale) ([2]; 31 g ai/ha): 50 | Barnyardgrass plant response rating (0 to 100 scale) ([2]; 125 g ai/ha): 90 | Foxtail, Giant plant response rating (0 to 100 scale) ([3]; 31 g ai/ha): 70 | Foxtail, Giant plant response rating (0 to 100 scale) ([3]; 125 g ai/ha): 90 | Kochia plant response rating (0 to 100 scale) ([4]; 31 g ai/ha): 0 | Kochia plant response rating (0 to 100 scale) ([4]; 125 g ai/ha): 60 | Pigweed plant response rating (0 to 100 scale) ([5]; 31 g ai/ha): 70 | Pigweed plant response rating (0 to 100 scale) ([5]; 125 g ai/ha): 90 | Ragweed plant response rating (0 to 100 scale) ([6]; 31 g ai/ha): 40 | Ragweed plant response rating (0 to 100 scale) ([6]; 125 g ai/ha): 100 | Ryegrass, Italian plant response rating (0 to 100 scale) ([7]; Postemergence, 31 g ai/ha): 30 | Ryegrass, Italian plant response rating (0 to 100 scale) [7, 21]: 80 | Barnyardgrass plant response rating (0 to 100 scale) ([8]; Postemergence, 31 g ai/ha): 30 | Barnyardgrass plant response rating (0 to 100 scale) [8, 21]: 70 | Blackgrass plant response rating (0 to 100 scale) ([9]; Postemergence, 31 g ai/ha): 30 | Blackgrass plant response rating (0 to 100 scale) [9, 21]: 30 | Corn plant response rating (0 to 100 scale) ([10]; Postemergence, 31 g ai/ha): 30 | Corn plant response rating (0 to 100 scale) [10, 21]: 20 | Foxtail, Giant plant response rating (0 to 100 scale) ([11]; Postemergence, 31 g ai/ha): 60 | Foxtail, Giant plant response rating (0 to 100 scale) [11, 21]: 90 | Galium plant response rating (0 to 100 scale) ([12]; Postemergence, 31 g ai/ha): 100 | Galium plant response rating (0 to 100 scale) [12, 21]: 100 | Kochia plant response rating (0 to 100 scale) ([13]; Postemergence, 31 g ai/ha): 50 | Kochia plant response rating (0 to 100 scale) [13, 21]: 90 | Pigweed plant response rating (0 to 100 scale) ([14]; Postemergence, 31 g ai/ha): 70 | Pigweed plant response rating (0 to 100 scale) [14, 21]: 100 | Ragweed plant response rating (0 to 100 scale) ([15]; Postemergence, 31 g ai/ha): 80 | Ragweed plant response rating (0 to 100 scale) [15, 21]: 80 | Wheat plant response rating (0 to 100 scale) ([16]; Postemergence, 31 g ai/ha): 0 | Wheat plant response rating (0 to 100 scale) [16, 21]: 40 | Plant response rating, Barnyardgrass (Flood) [17]: 0 | Plant response rating, Ducksalad (Flood) [18]: 0 | Plant response rating, Rice (Flood) [19]: 0 | Plant response rating, Sedge, Umbrella (Flood) [20]: 0
